Assays:
VtrC (VPA1333) = molecular target: T1, VtrC (VPA1333) (Vibrio parahaemolyticus, UniProt Q87GI3+Q87GI4); assay: ITC (n = […]) and […] Å co-crystal structure; type: binding
T1 construct: periplasmic domains: VtrC aa 31–161 (N-terminal His-tagged) co-expressed with VtrA aa 161–253; with VtrA (VPA1332), periplasmic domain aa 161–253, obligate 1:1 heterodimer

[1] = molecular target: N-terminal His-tagged VtrC periplasmic domain (aa 31-161) (Vibrio parahaemolyticus); assay: SEC

| Compound | Kd (VtrC (VPA1333)) [nM] | stoichiometry N (VtrA per VtrC) [1] |
| --- | --- | --- |
| C[C@H](CCC(=O)NCCS(=O)(=O)O)[C@H]1CC[C@H]2[C@@H]3CC[C@@H]4C[C@H](O)CC[C@]4(C)[C@H]3C[C@H](O)[C@]12C [TDC, taurodeoxycholate] | 315 |  |
| VtrA periplasmic domain (aa 161-253), co-expressed with VtrC (domain or fragment) |  | 1 |

Source: paper PMC4933562, “Bile salt receptor complex activates a pathogenic type III secretion system” (eLife, 2016)
